Measurements taken from patent US20110142866A1, “PEPTIDE ANALOGUES AND CONJUGATES THEREOF” (Eldrug S.A., priority 2007, published 2011).
Several values for one entry are separate records, joined by “and”; a condition that tells them apart may be missing. Identical values can stand only once.

Legend:
[1] = test system: respective peptides conjugated to BSA or KLH; assay: ELISA total IgG antibody responses to the respective peptide; type: in vivo, SJL/J mice; parameters: key to Antibody: −: negative; +/−: very weak; +: weak; ++: moderate; +++: strong
Procedure: Blood was collected and sera isolated from mice prior to and 4 weeks after immunization with CFA or 14 days after the last immunization with reduced mannan conjugates. MBP87-99 or [A^91, A^96]MBP87-99 peptides conjugated to BSA or KLH were coated onto polyvinyl chloride (PVC) microtiter plates at 10 μg/ml in 0.2 M NaHCO3 buffer, pH 9.6, 0/N at 4° C. Non-specific binding was blocked with 2% BSA for 1.0 h at RT. After washing (0.05 Tween 20/PBS), serial dilutions of sera were added and incubated for a further 2 h at RT. The plates were washed and bound antibody was detected using HRP-conjugated sheep anti-mouse antibody (1/1000 dilution in PBS) (Amersham, UK) and developed using 2,2′-azino-di(3-ethylbenzthiazoline)6-sulfonic acid (ABTS) (Sigma, UK). Absorbance at 405 nm was recorded using a Fluostar Optima microplate reader (BMG labtech, Offenburg, Germany).
ELISpot assays for IFN-γ and IL-4 secretion by T cells and ELISA assays for binding of sera to native MBP protein or peptide were carried out as previously described^3, 4, 20, 21. Mean values were compared using the Student's two-tailed t-test. P value threshold of p<0.01 indicates a statistically significant difference.

[2] = test system: IFN-γ production induced by the native MBP83-99 peptide; assay: In vitro IFN-γ antagonism ELISpot; type: cell-based, SJL/J mice; parameters: key to Antagonism: −: negative; +/−: very weak; +: weak; ++: moderate; +++: strong; conditions: for Antagonism: Table 3, complete Freund's adjuvant
Procedure: Mice were immunized with native MBP83-99 peptide emulsified in CFA, and spleen cells were isolated 25 days later. The ability of cyclic mutant MBP83-99 peptide analogues to antagonize IFN-γ production was assessed by ELISpot analysis. The native MBP83-99 peptide was added together with cyclic mutated MBP83-99 analogues, and % IFN-γ inhibition is shown.
ELISpot assays are an ex vivo 18 h assay that measures IFN-γ secretion by T cells. […] The sensitivity of the assay is higher than limiting dilution analysis, FACscan analysis, or ELISA methods and can reliably detect precursor frequencies of antigen specific effectors of 1 in every 0.5 million cells. It is therefore an appropriate method to detect antigen specific cells. Here, we measured IFN-γ production generated by the native MBP83-99 peptide and assessed the % inhibition (antagonize) of IFN-γ produced in the presence of mutant peptide analogues.
Cyclic head-to-tail MBP83-99 single and double mutant analogues were tested for their ability to inhibit IFN-γ responses induced by the native agonist MBP83-99 peptide. Mice were immunized with the native agonist MBP83-99 peptide emulsified in complete Freund's adjuvant (CFA). Spleen cells were isolated 25 days later, and the ability of cyclic peptides to inhibit (antagonize) IFN-γ production was assessed in in vitro antagonism ELISpot assays (FIG. 8). The results are shown as % IFN-γ inhibition of each cyclic mutant peptide analogue, in comparison to the native MBP83-99 peptide alone. All cyclic peptide analogues inhibited IFN-γ production between 30% and 90%. […] However, the single mutant analogue cyclo(83-99)[A^91]MBP83-99 was the most efficient in inhibiting IFN-γ production induced by the native MBP83-99 peptide, up to 92%. On the basis of the ability of cyclo(83-99)[A^91]MBP83-99 peptide to inhibit (antagonize) IFN-γ production by T cells, we chose to examine its in vivo efficacy in SJL/J mice after emulsification in CFA or conjugation to reduced mannan.

[3] = Table 2, peptide analogues conjugated to reduced mannan-KLH
[4] = Table 3, peptide analogues emulsified in complete Freund's adjuvant
[5] = peptide conjugated to reduced mannan

Compound	IgG antibody responses (in words) ([1]; peptide emulsified in CFA)	Antagonism [2]	Antibody [1, 3]	Antibody [1, 4]	subclass of the antibodies induced [1, 5]	total IgG antibody titer [1, 5]	IgG antibody responses (in words) [1, 5]	% IFN-γ inhibition ([2]; spleen cells of mice immunized with native MBP83-99 in CFA, 25 days, cyclic analogue added together with native MBP83-99)
CC[C@H](C)[C@@H]1NC(=O)[C@H](CC(N)=O)NC(=O)[C@H](CCCCN)NC(=O)[C@H](Cc2ccccc2)NC(=O)[C@H](Cc2ccccc2)NC(=O)[C@H](Cc2c[nH]cn2)NC(=O)[C@H](C(C)C)NC(=O)[C@H](C(C)C)NC(=O)[C@@H]2CCCN2C(=O)[C@H](CC(N)=O)NC(=O)[C@H](CCC(=O)O)NC(=O)[C@@H]2CCCN2C(=O)[C@H]([C@@H](C)O)NC(=O)[C@H](CCCNC(=N)N)NC(=O)[C@@H]2CCCN2C(=O)[C@H]([C@@H](C)O)NC(=O)[C@H](C(C)C)NC1=O [cyclo(83-99)MBP83-99, cyclo(83-99)E N P V V H F F K N I V T P R T P]	antibodies were generated							
E N P V V H F F A N I V T P R T P (ENPVVHFFANIVTPRTP) [[A^91]MBP83-99]	able to induce IgG antibody responses	++	+	++	IgG1	1/640		
E N P V V H F F E N I V T P R T P (ENPVVHFFENIVTPRTP) [[E^91]MBP83-99]		++	+++	++	IgG1			
E N P V V H F F F N I V T P R T P (ENPVVHFFFNIVTPRTP) [[F^91]MBP83-99]		++	+/−	++		1/800	weak	
E N P V V H F F K N I V T P R T P (ENPVVHFFKNIVTPRTP) [MBP83-99, reference compound]	did not generate IgG antibodies		+++	−				
E N P V V H F F R N I V T A R T P (ENPVVHFFRNIVTARTP) [[R^91, A^96]MBP83-99]		++	+++	++	IgG1			
E N P V V H F F Y N I V T P R T P (ENPVVHFFYNIVTPRTP) [[Y^91]MBP83-99]		++	+++	−	IgG1			
cyclo(83-99)E N P V V H F F A N I V T P R T P (ENPVVHFFANIVTPRTP; cyclised or stapled) [cyclo(83-99)[A^91]MBP83-99]	enhanced	++	+/−	+		1/800 and 1/1600		up to 92%
